Laboratory results as given in ChEMBL document CHEMBL4190212, “Synthesis, antiprotozoal activity, and chemoinformatic analysis of 2-(methylthio)-1H-benzimidazole-5-carboxamide derivatives: Identification of new selective giardicidal and trichomonicidal compounds” (Eur J Med Chem, 2017).

Experiments:
Entamoeba histolytica [1] = assay: Antiparasitic activity against trophozoite stage of Entamoeba histolytica HM-1:IMSS after 48 hrs by haemocytometric method; assay type: functional, organism-based
Giardia intestinalis [2] = assay: Antiparasitic activity against trophozoite stage of Giardia intestinalis IMSS:0989:1 after 48 hrs; assay type: functional, organism-based; details: Giardia duodenalis, IMSS:0989:1, 48 h
Trichomonas vaginalis = assay: Antiparasitic activity against trophozoite stage of Trichomonas vaginalis CNCD 147 after 48 hrs; assay type: functional, organism-based; details: CNCD 147, 48 h
Entamoeba histolytica [3] = assay: Antiparasitic activity against trophozoite stage of Entamoeba histolytica HM-1:IMSS after 48 hrs; assay type: functional, organism-based
Giardia intestinalis [4] = assay: Potency index, ratio of metronidazole IC50 to test compound IC50 for trophozoite stage of Giardia intestinalis IMSS:0989:1; assay type: functional, Giardia duodenalis
Entamoeba histolytica [5] = assay: Potency index, ratio of metronidazole IC50 to test compound IC50 for trophozoite stage of Entamoeba histolytica HM-1:IMSS; assay type: functional

SMILES	IC50 (Entamoeba histolytica [1]) [nM]	IC50 (Giardia intestinalis [2]) [nM]	IC50 (Trichomonas vaginalis) [nM]	IC50 (Entamoeba histolytica [3]) [nM]	Ratio IC50 (Giardia intestinalis [4])	Ratio IC50 (Entamoeba histolytica [5])
O=[N+]([O-])c1cc2nc(C(F)(F)F)[nH]c2cc1[N+](=O)[O-]	1550	–	–	–	–	–
FC(F)(F)C(F)(F)c1nc2c(Br)c(Br)c(Br)c(Br)c2[nH]1	229	–	–	–	–	–
FC(F)(F)c1nc2c(Br)c(Br)c(Br)cc2[nH]1	13800	–	–	–	–	–
FC(F)(F)c1nc2cc(Br)c(Br)cc2[nH]1	437	–	–	–	–	–
CSc1nc2cc(C(=O)Nc3cccc(C)n3)c(Cl)cc2n1C	–	15.8	28.8	41.8	–	–
CSc1nc2cc(C(=O)Nc3cccc(C)n3)c(Cl)cc2[nH]1	–	135	111	81.3	–	–
CSc1nc2cc(C(=O)Nc3ccccn3)c(Cl)cc2[nH]1	–	77	67.6	44	–	–
CSc1nc2cc(C(=O)Nc3ccc([N+](=O)[O-])cn3)c(Cl)cc2n1C	–	7.9	41	9.2	155	41
CSc1nc2cc(C(=O)Nc3ccccc3)c(Cl)cc2[nH]1	–	72.5	120	52	–	–
CSc1nc2cc(C(=O)Nc3ccccn3)c(Cl)cc2n1C	–	346	12	34.5	–	–
CSc1nc2cc(C(=O)NNC(=O)OC(C)(C)C)c(Cl)cc2n1C	–	56.6	28.3	48.5	–	–
CSc1nc2cc(C(=O)Nc3cccc(Cl)c3)c(Cl)cc2[nH]1	–	1110	162	51	–	–
CSc1nc2cc(C(=O)Nc3cccc(C)c3)c(Cl)cc2[nH]1	–	250	515	120	–	–
CSc1nc2cc(C(=O)Nc3cccc(Cl)n3)c(Cl)cc2n1C	–	12.2	368	40.8	–	–
CSc1nc2cc(C(=O)Nc3cccc(Cl)n3)c(Cl)cc2[nH]1	–	454	128	36.9	–	–
CSc1nc2cc(C(=O)N/N=C/c3ccc([N+](=O)[O-])o3)c(Cl)cc2n1C	–	29.2	13.2	26.6	–	–
